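The concentration for 50% growth inhibition is given as GI50. Definition used: TGI = concentration required for complete inhibition of growth.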
How the values were obtained:
Test in all cases: NCI anticancer screen, dose series, 384-well format
SK-OV-3 ovarian = test system: SK-OV-3 ovarian
SK-MEL-5 melanoma = test system: SK-MEL-5 melanoma
MDA-MB-435 melanoma = test system: MDA-MB-435 melanoma
OVCAR-4 ovarian = test system: OVCAR-4 ovarian
SN12C renal = test system: SN12C renal
UACC-62 melanoma = test system: UACC-62 melanoma
HCT-15 colon = test system: HCT-15 colon
ACHN renal = test system: ACHN renal
NCI-H460 NSCLC = test system: NCI-H460 NSCLC
HL-60(TB) leukemia = test system: HL-60(TB) leukemia
786-0 renal = test system: 786-0 renal
SNB-75 CNS = test system: SNB-75 CNS
NCI-H322M lung = test system: NCI-H322M lung
NCI-H226 lung = test system: NCI-H226 lung
HS 578T breast = test system: HS 578T breast
OVCAR-3 ovarian = test system: OVCAR-3 ovarian
SF-268 CNS = test system: SF-268 CNS
COLO 205 colon = test system: COLO 205 colon
HOP-62 NSCLC = test system: HOP-62 NSCLC
MALME-3M melanoma = test system: MALME-3M melanoma
NCI/ADR-RES ovarian = test system: NCI/ADR-RES ovarian
U251 glioblastoma = test system: U251 glioblastoma
MDA-MB-231 breast = test system: MDA-MB-231 breast
HOP-92 NSCLC = test system: HOP-92 NSCLC
SW-620 colon = test system: SW-620 colon
NCI-H522 lung = test system: NCI-H522 lung
A549 NSCLC = test system: A549 NSCLC
MOLT-4 leukemia = test system: MOLT-4 leukemia
SF-295 CNS = test system: SF-295 CNS
HCT-116 colon = test system: HCT-116 colon
SF-539 CNS = test system: SF-539 CNS
A498 renal = test system: A498 renal
M14 melanoma = test system: M14 melanoma
UACC-257 melanoma = test system: UACC-257 melanoma
OVCAR-8 ovarian = test system: OVCAR-8 ovarian
LOX IMVI melanoma = test system: LOX IMVI melanoma
BT-549 breast = test system: BT-549 breast
RPMI-8226 leukemia = test system: RPMI-8226 leukemia
IGROV1 ovarian = test system: IGROV1 ovarian
MCF7 breast = test system: MCF7 breast
SK-MEL-28 melanoma = test system: SK-MEL-28 melanoma
NCI-H23 lung = test system: NCI-H23 lung
OVCAR-5 ovarian = test system: OVCAR-5 ovarian
SNB-19 CNS = test system: SNB-19 CNS
EKVX NSCLC = test system: EKVX NSCLC
TK-10 renal = test system: TK-10 renal
PC-3 prostate = test system: PC-3 prostate
UO-31 renal = test system: UO-31 renal
RXF 393 renal = test system: RXF 393 renal
KM12 colon = test system: KM12 colon
CAKI-1 renal = test system: CAKI-1 renal
T-47D breast = test system: T-47D breast
DU-145 prostate = test system: DU-145 prostate
MDA-MB-468 breast = test system: MDA-MB-468 breast
SR leukemia = test system: SR leukemia
CCRF-CEM leukemia = test system: CCRF-CEM leukemia
K-562 leukemia = test system: K-562 leukemia
HCC-2998 colon = test system: HCC-2998 colon
HT29 colon = test system: HT29 colon

## N#CC[C@H](C1CCCC1)n1cc(-c2ncnc3[nH]ccc23)cn1
SK-OV-3 ovarian
  GI50: 21 µM
  TGI: 45.9 µM
SK-MEL-5 melanoma
  GI50: 18.2 µM
  TGI: 33.1 µM
MDA-MB-435 melanoma
  GI50: 26.6 µM
  TGI: 66.5 µM
OVCAR-4 ovarian
  GI50: 29 µM
  TGI: 51.2 µM
SN12C renal
  GI50: 18.7 µM
  TGI: 49.7 µM
UACC-62 melanoma
  GI50: 21.5 µM
  TGI: 41.7 µM
HCT-15 colon
  GI50: 26.2 µM
  TGI: 82.1 µM
ACHN renal
  GI50: 21.1 µM
  TGI: 50.9 µM
NCI-H460 NSCLC
  GI50: 16 µM
  TGI: 46.7 µM
HL-60(TB) leukemia
  GI50: 23.9 µM
  TGI: 38.8 µM
786-0 renal
  GI50: 17.4 µM
  TGI: 43.9 µM
SNB-75 CNS
  GI50: 18.4 µM
  TGI: 41.3 µM
NCI-H322M lung
  GI50: 26.3 µM
  TGI: 58.7 µM
NCI-H226 lung
  GI50: 5.75 µM
  TGI: 25 µM
HS 578T breast
  GI50: 12.4 µM
  TGI: 26 µM
OVCAR-3 ovarian
  GI50: 25.8 µM
  TGI: 51.8 µM
SF-268 CNS
  GI50: 16.2 µM
  TGI: 36.6 µM
COLO 205 colon
  GI50: 24.7 µM
  TGI: 53.1 µM
HOP-62 NSCLC
  GI50: 18.7 µM
  TGI: 37.1 µM
MALME-3M melanoma
  GI50: 19 µM
  TGI: 34.7 µM
NCI/ADR-RES ovarian
  GI50: 23.4 µM
  TGI: 50.3 µM
U251 glioblastoma
  GI50: 28.4 µM
  TGI: 71.8 µM
MDA-MB-231 breast
  GI50: 16.4 µM
  TGI: 40.3 µM
HOP-92 NSCLC
  GI50: 22.2 µM
  TGI: 56.3 µM
SW-620 colon
  GI50: 29.7 µM
  TGI: > 100 µM
NCI-H522 lung
  GI50: 13.6 µM
  TGI: 29.5 µM
A549 NSCLC
  GI50: 18.3 µM
  TGI: 52.6 µM
MOLT-4 leukemia
  GI50: 18.3 µM
  TGI: 46.1 µM
SF-295 CNS
  GI50: 18.3 µM
  TGI: 37.9 µM
HCT-116 colon
  GI50: 23.5 µM
  TGI: 63.4 µM
SF-539 CNS
  GI50: 19.7 µM
  TGI: 42 µM
A498 renal
  GI50: 21.7 µM
  TGI: 41.6 µM
M14 melanoma
  GI50: 27.2 µM
  TGI: 50.9 µM
UACC-257 melanoma
  GI50: 25.9 µM
  TGI: 68.5 µM
OVCAR-8 ovarian
  GI50: 27.6 µM
  TGI: 75.8 µM
LOX IMVI melanoma
  GI50: 19.1 µM
  TGI: 35.8 µM
BT-549 breast
  GI50: 19.8 µM
  TGI: 34.6 µM
RPMI-8226 leukemia
  GI50: 19.4 µM
  TGI: 34.6 µM
IGROV1 ovarian
  GI50: 22.7 µM
  TGI: 84.4 µM
MCF7 breast
  GI50: 25.9 µM
  TGI: 77.7 µM
SK-MEL-28 melanoma
  GI50: 23 µM
  TGI: 55.7 µM
NCI-H23 lung
  GI50: 17.1 µM
  TGI: 32.8 µM
OVCAR-5 ovarian
  GI50: 23.5 µM
  TGI: 48.7 µM
SNB-19 CNS
  GI50: 30.6 µM
  TGI: 82.7 µM
EKVX NSCLC
  GI50: 20.9 µM
  TGI: 66 µM
TK-10 renal
  GI50: 29 µM
  TGI: 89.6 µM
PC-3 prostate
  GI50: 25.7 µM
  TGI: 58.1 µM
UO-31 renal
  GI50: 18.1 µM
  TGI: 47.9 µM
RXF 393 renal
  GI50: 12.9 µM
  TGI: 30.4 µM
KM12 colon
  GI50: 4.07 µM
  TGI: > 100 µM
CAKI-1 renal
  GI50: 21.3 µM
  TGI: 50.5 µM
T-47D breast
  GI50: 19.5 µM
  TGI: 63.9 µM
DU-145 prostate
  GI50: 16 µM
  TGI: 42.1 µM
MDA-MB-468 breast
  GI50: 23.2 µM
  TGI: 53.5 µM
SR leukemia
  GI50: 8.31 µM
  TGI: 20.6 µM

## N#Cc1c(Oc2ccc(F)c(NC(=O)Cc3cccc(C(F)(F)F)c3)c2)ccc2nc(NC(=O)C3CC3)sc12
SK-OV-3 ovarian
  GI50: 1.79 µM
  TGI: > 100 µM
SK-MEL-5 melanoma
  GI50: 0.0171 µM
  TGI: 1.68 µM
MDA-MB-435 melanoma
  GI50: 0.0622 µM
  TGI: > 100 µM
OVCAR-4 ovarian
  GI50: 3.64 µM
  TGI: > 100 µM
SN12C renal
  GI50: 0.461 µM
  TGI: 4.71 µM
UACC-62 melanoma
  GI50: 0.0152 µM
  TGI: 0.106 µM
HCT-15 colon
  GI50: 0.401 µM
  TGI: > 100 µM
ACHN renal
  GI50: 0.755 µM
  TGI: > 100 µM
NCI-H460 NSCLC
  GI50: 0.745 µM
  TGI: > 100 µM
HL-60(TB) leukemia
  GI50: 0.0805 µM
  TGI: 0.914 µM
786-0 renal
  GI50: 0.913 µM
  TGI: 7.15 µM
SNB-75 CNS
  GI50: 1.3 µM
  TGI: 4.36 µM
NCI-H322M lung
  GI50: 1.33 µM
  TGI: > 100 µM
NCI-H226 lung
  GI50: 0.312 µM
  TGI: 4.19 µM
CCRF-CEM leukemia
  GI50: 0.263 µM
  TGI: 2.97 µM
HS 578T breast
  GI50: 0.698 µM
  TGI: 2.52 µM
OVCAR-3 ovarian
  GI50: 2.41 µM
  TGI: 82.1 µM
SF-268 CNS
  GI50: 0.0395 µM
  TGI: 0.263 µM
COLO 205 colon
  GI50: 0.0311 µM
  TGI: 2.64 µM
HOP-62 NSCLC
  GI50: 1.7 µM
  TGI: > 100 µM
MALME-3M melanoma
  TGI: 0.0309 µM
NCI/ADR-RES ovarian
  GI50: 1.03 µM
  TGI: 4.65 µM
U251 glioblastoma
  GI50: 0.486 µM
  TGI: 8.26 µM
MDA-MB-231 breast
  GI50: 0.0783 µM
  TGI: 2.52 µM
HOP-92 NSCLC
  GI50: 0.783 µM
  TGI: 2.25 µM
SW-620 colon
  GI50: 0.47 µM
  TGI: 8.51 µM
NCI-H522 lung
  GI50: 0.484 µM
  TGI: 5.65 µM
K-562 leukemia
  GI50: 0.114 µM
  TGI: 0.3 µM
A549 NSCLC
  GI50: 1.87 µM
  TGI: > 100 µM
MOLT-4 leukemia
  GI50: 0.0975 µM
  TGI: 0.238 µM
SF-295 CNS
  GI50: 0.516 µM
  TGI: > 100 µM
HCT-116 colon
  GI50: 0.158 µM
  TGI: 1.85 µM
HCC-2998 colon
  GI50: 0.291 µM
  TGI: 7.01 µM
SF-539 CNS
  GI50: 1.07 µM
  TGI: 3.06 µM
A498 renal
  GI50: 1.7 µM
  TGI: 5.2 µM
M14 melanoma
  GI50: 0.0125 µM
  TGI: 0.117 µM
UACC-257 melanoma
  GI50: 0.0266 µM
  TGI: 0.138 µM
OVCAR-8 ovarian
  GI50: 0.746 µM
  TGI: > 100 µM
LOX IMVI melanoma
  GI50: 0.0418 µM
  TGI: 0.992 µM
HT29 colon
  GI50: 0.0642 µM
  TGI: > 100 µM
BT-549 breast
  GI50: 1.32 µM
  TGI: > 100 µM
RPMI-8226 leukemia
  GI50: 0.198 µM
  TGI: 0.847 µM
IGROV1 ovarian
  GI50: 0.434 µM
  TGI: 3.11 µM
MCF7 breast
  GI50: 0.717 µM
  TGI: > 100 µM
SK-MEL-28 melanoma
  GI50: 0.0167 µM
  TGI: 0.068 µM
NCI-H23 lung
  GI50: 0.0989 µM
  TGI: 1.26 µM
OVCAR-5 ovarian
  GI50: 0.677 µM
  TGI: 9.85 µM
SNB-19 CNS
  GI50: 2.63 µM
  TGI: > 100 µM
EKVX NSCLC
  GI50: 3.8 µM
  TGI: 35.6 µM
TK-10 renal
  GI50: 0.311 µM
  TGI: 3.52 µM
PC-3 prostate
  GI50: 1.42 µM
  TGI: > 100 µM
UO-31 renal
  GI50: 0.427 µM
  TGI: 2.22 µM
RXF 393 renal
  GI50: 0.159 µM
  TGI: 1.6 µM
KM12 colon
  GI50: 1.21 µM
  TGI: > 100 µM
CAKI-1 renal
  GI50: 1.14 µM
  TGI: 8.63 µM
T-47D breast
  GI50: 1.2 µM
  TGI: 6.7 µM
DU-145 prostate
  GI50: 2.77 µM
  TGI: > 100 µM
MDA-MB-468 breast
  GI50: 1.06 µM
  TGI: 6.56 µM

Reference: PubChem BioAssay (NCI)
